These results are taken from patent US20210330648A1, “Pharmaceutical composition and use thereof” (ALPHALA CO., LTD., priority 2020, published 2021).

Series [1] can be described thus: In vitro dissolution testing, USP apparatus Type 2 (paddles). Format: physicochemical. The conditions noted are these: pH 6.8 phosphate buffer with 0.25% SDS, 900 mL, 75 rpm, 37° C. On the procedure:
In vitro dissolution testing was performed using an USP dissolution apparatus Type 2 (paddles) at 75 rpm (250 rpm at infinity) using 900 mL phosphate buffer pH 6.8 with 0.25% w/v SDS as the dissolution medium at 37 0.5° C.

Series [2] is described as follows: Solubility in buffers or solutions, LC-MS/MS. Format: physicochemical. The conditions noted are these: for Solubility (mg/ml): 37° C., 24 hrs. On the procedure: The method for measuring the solubilities of the formulations is briefly described. The test formulation was added into indicated buffers or solutions (ddH2O or 0.9% saline, pH 7.4) to the final concentration of 3 mg/mL, followed by sonicating for 30 mins. Next, the mixture was put into 37° C. water bath for 24 hrs. The mixture was mixed well by vortex and 1 mL of mixture was transferred into the 1.5 mL eppendorf tube, followed by centrifuging at 20817 xg for 30 mins. 10 μL of the supernatant was collected, and the concentration of the collected supernatant was determined by LC-MS/MS.

For series [3] the following is noted: indicates poor aqueous solubility but good membrane permeability; cited from earlier work.
A short description of series [4]: Oral bioavailability / pharmacokinetics in Beagle dogs. Format: in vivo. Particulars: dog, plasma, pH 7.4, IV bolus, 40 to 50 mg, vehicle 0.1M NaHCO3 pH7.4, read-out: AUC (area under the curve) of IV bolus.
Description: Briefly, three healthy, research Beagle dogs, aged 4˜10 years and body weight 9˜12 kg were used. The pharmacokinetics experiments have intravenous bolus (IV bolus) and oral groups.
For the IV bolus and oral groups, the dogs received the drugs after fasting for 4 hours, and the blood samples of the dogs were taken before administration. The blood samples were collected at pre-assigned times (10 min, 1 hr, 2 hr, 4 hr, 5 hr, 7 hr and 24 hr) after administration. The concentrations of the drug in plasma were determined with validated high performance liquid chromatography.
The plasma concentration data were analyzed and modeled by the non-compartmental analysis to obtain pharmacokinetics parameters.

What is called solubility is how much of the substance goes into solution per volume. The low end stands for little dissolved substance, the high end for much dissolved substance. For orientation: AUC means concentration integrated over time.

Converted amounts (≈) assume the structure as drawn.

On to `CCOC(=O)CCNC(=O)c1ccc(N[C@H](c2ccc(-c3nnc(-c4ccccc4)o3)cc2)C(C)C)cc1` [ALP001E], for which the In vitro dissolution in series [1] (0 min) is reported as 0.00%; in series [1] (5 min), 4.40%; in series [1] (10 min), 3.69%; in series [1] (15 min), 4.73%; in series [1] (20 min), 2.87%; in series [1] (30 min), 1.18%. For the same compound, the In vitro dissolution came to 1.26% in series [1] (45 min), 2.11% in series [1] (60 min), 2.77% in series [1] (90 min) and 13.04% in series [1] (120 min). Besides, the “Solubility (mg/ml)” value in series [2] (H2O (pH 7.0)) and in series [2] (Saline (pH 7.4)) was “<LOQ” in each case. This compound gave a solubility at 24 h in series [2] (USP pH 6.8 buffer, aqueous buffer, thermodynamic from solid, USP pH 6.8, 37° C.) of 0.44 µg/mL (≈ 0.858 µM). In addition, the “Biopharmaceutical Classification System (BCS) class” value in series [3] was “Class II”.

As for `CC(C)[C@H](Nc1ccc(C(=O)NCCC(=O)O)cc1)c1ccc(-c2nnc(-c3ccccc3)o2)cc1` [ALP001], the area under the curve (AUC) in series [4] stood at 2180 ng·h/mL.
